Results published in the NIST ThermoML archive (doi:10.1016/j.fluid.2015.12.053).
Numbers after ± are expanded uncertainties.

What was measured:
[1] = wn = mass fraction of the nth substance listed; settings: 100 kPa, Liquid, Pycnometric method
[2] = Liquid, Ebulliometric method (Recirculating still)

Cl.Nc1ccccc1 [aniline hydrochloride] + O
mass density [kg/m3], [1]
Settings	w1 = 0.01	w1 = 0.05	w1 = 0.1	w1 = 0.15	w1 = 0.2	w1 = 0.3	w1 = 0.35	w1 = 0.4	w1 = 0.6
298.15 K	1000 ± 1	1009.2 ± 0.3	1018.9 ± 0.3	1028.7 ± 0.3	1038.5 ± 0.3	1057.8 ± 0.3	1068 ± 1	1078.3 ± 0.3	–
303.15 K	997.4 ± 0.3	1007.3 ± 0.3	1016.3 ± 0.3	1026.6 ± 0.3	1036.8 ± 0.3	1056 ± 1	1065.8 ± 0.3	1075.6 ± 0.3	–
313.15 K	994.3 ± 0.3	1002.3 ± 0.3	1012.3 ± 0.3	1021.7 ± 0.3	1031 ± 1	1049.6 ± 0.3	1059.7 ± 0.4	1069.7 ± 0.4	–
323.15 K	989.5 ± 0.3	995.9 ± 0.3	1007.3 ± 0.3	1016.5 ± 0.3	1025.8 ± 0.3	1045.3 ± 0.4	1055.1 ± 0.4	1065 ± 1	1107.5 ± 0.4
333.15 K	985.6 ± 0.4	991.2 ± 0.4	1003.8 ± 0.4	1012.8 ± 0.4	1021.8 ± 0.4	1040.6 ± 0.4	1050.1 ± 0.4	1059.6 ± 0.4	1103.3 ± 0.4
343.15 K	979.1 ± 0.4	985.1 ± 0.4	997.1 ± 0.4	1005.9 ± 0.4	1014.7 ± 0.4	1033.5 ± 0.4	1043 ± 1	1052.5 ± 0.4	1097.1 ± 0.5
353.15 K	975.1 ± 0.4	980.7 ± 0.4	990.2 ± 0.5	998.8 ± 0.5	1007.4 ± 0.5	1026.7 ± 0.5	1036.3 ± 0.5	1045.9 ± 0.5	1087 ± 1
356.65 K	965.4 ± 0.9	973.4 ± 0.8	978.7 ± 0.9	987.6 ± 1	996.6 ± 0.9	1016 ± 1	1026.1 ± 0.9	1036.3 ± 0.9	1078 ± 1

O [water] + Cl.Nc1ccccc1
[1], w2 = 0
Settings	mass density [kg/m3]
298.15 K	997.7 ± 0.3
303.15 K	996 ± 1
313.15 K	992 ± 1
323.15 K	986.6 ± 0.3
333.15 K	983.1 ± 0.4
343.15 K	977.3 ± 0.4
353.15 K	971.8 ± 0.4
356.65 K	963.9 ± 0.7

Cl.Nc1ccccc1 [aniline hydrochloride]
[2]
Settings	vapor or sublimation pressure [kPa]
475.15 K	23.25 ± 0.18
480.15 K	27.25 ± 0.2
484.15 K	31.25 ± 0.2
488.15 K	34.25 ± 0.25
493.15 K	41.25 ± 0.61
494.15 K	44.25 ± 0.42
495.15 K	45.25 ± 0.25
496.15 K	46.25 ± 0.31
498.15 K	49.25 ± 0.37
499.15 K	51.25 ± 0.39
500.15 K	52.75 ± 0.39
501.15 K	54.75 ± 0.39
502.15 K	56.25 ± 0.46
503.15 K	59 ± 0.43
505.15 K	62.25 ± 0.46
509.15 K	71.25 ± 0.53
512.15 K	79.25 ± 0.6
513.65 K	83.75 ± 0.66
516.15 K	91.25 ± 0.73
517.65 K	97.25 ± 0.75
519.15 K	101.5 ± 0.81
519.65 K	105.25 ± 1.1
521.15 K	112.25 ± 1.1
522.15 K	118.25 ± 1.3
524.15 K	131.25 ± 1.3
525.15 K	136.25 ± 1.1
526.15 K	141.25 ± 1.3
527.15 K	148.25 ± 1.5
